Our source for the inhibition values is patent publication US10940139B2, “Compounds that interact with the Ras superfamily for the treatment of cancers, inflammatory diseases, rasopathies, and fibrotic disease” (Shy Therapeutics LLC, priority 2017, dated 2021).

In test [1] the target is KRas G12D/Q61H double mutant (Homo sapiens (Human), UniProt P01116, G12D/Q61H). The test is described as follows: Ras GTP binding domain inhibition assay (labeled GTP). The note with it: at 20 μM; read-out: KRas G12D Q61H % Inh. The method, boiled down:
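Fluorescence read-out of Cy3-/Cy5-GTP remaining bound to nickel-immobilized His-KRas after washes. Protein was coated overnight at 4° C, then exposed to compound for 3 h at room temperature before a 45 min labeled-GTP incubation.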

The target in test [2] is Rho-A (Homo sapiens (Human), UniProt P61586). Kind of test: Rho inhibition assay (labeled GTP). It is filed as binding. The following applies: read-out: Rho-A % Inh.
Test [3] addresses Rac-1 (Homo sapiens (Human), UniProt P63000). Kind of test: Rac inhibition assay (labeled GTP). It is filed as binding. The following applies: read-out: Rac-1 % Inh.

Sequence of Rho-A (P61586 whole entry): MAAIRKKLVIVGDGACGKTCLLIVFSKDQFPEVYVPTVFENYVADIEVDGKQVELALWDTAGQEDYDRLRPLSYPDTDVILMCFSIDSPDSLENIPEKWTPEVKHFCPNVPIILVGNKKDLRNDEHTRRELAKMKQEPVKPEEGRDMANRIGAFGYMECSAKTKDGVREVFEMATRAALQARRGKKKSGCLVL
Sequence of KRas G12D/Q61H double mutant (P01116-2 other isoform, or with tags, fused parts or gaps G12D/Q61H): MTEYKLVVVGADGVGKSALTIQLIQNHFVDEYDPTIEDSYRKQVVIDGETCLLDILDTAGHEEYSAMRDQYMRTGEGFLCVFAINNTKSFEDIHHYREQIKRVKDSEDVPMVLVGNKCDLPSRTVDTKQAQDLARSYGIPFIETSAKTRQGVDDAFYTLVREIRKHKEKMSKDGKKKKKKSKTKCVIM

For the compound `Cc1ccccc1C1CN(C(=O)c2csc3c(O)nc(-c4ccccn4)nc23)CCN1` (stereo not drawn) [drawing 3664], the inhibition at 20 µM in test [1] was 25 to 50%; in test [2], 76 to 100%; in test [3], 76 to 100%.

For the compound `Cc1ccccc1N1CCN(C(=O)c2csc3c(O)nc(-c4ccccn4)nc23)CC1` [drawing 3628], the inhibition at 20 µM lay in the range of 25 to 50% in test [1], 76 to 100% in test [2] and 76 to 100% in test [3].

As for `COCCCCNC(=O)c1csc2nc(-c3ccccn3)nc(N3CCOCC3)c12` [drawing 3678], the inhibition at 20 µM lay within 1 to 25% in test [1], 51 to 75% in test [2] and 51 to 75% in test [3].

In the case of `CC(C)(C(=O)Nc1nc(-c2ccccn2)nc2sccc12)c1ccc(C#N)cc1` [drawing 3641], the inhibition at 20 µM in test [1] was 0%; in test [2] it was 51 to 75%; in test [3], 76 to 100%.

With `COC(=O)c1nc(-c2ccccn2)nc(O)c1O` [drawing 3865], the inhibition at 20 µM lay within 51 to 75% in test [1], 76 to 100% in test [2] and 76 to 100% in test [3].

For the compound `O=C(NCCc1nnn[nH]1)c1csc2nc(-c3ccccn3)nc(N3CCOCC3)c12` [drawing 3675], the inhibition at 20 µM was 1 to 25% in test [1], 51 to 75% in test [2] and 76 to 100% in test [3].

As to `O=C(c1csc2c(O)nc(-c3ccccn3)nc12)N1CCN(c2ccc(O)c(Cl)c2)CC1` [drawing 3692], the inhibition at 20 µM in test [1] was in the range of 51 to 75%; in test [2] it was 76 to 100%; in test [3], 76 to 100%.

Regarding `O=C(NCCc1ccncn1)c1csc2nc(-c3ccccn3)nc(N3CCOCC3)c12` [drawing 3819], the inhibition at 20 µM in test [1] fell in the range of 25 to 50%; in test [2], 51 to 75%; in test [3], 51 to 75%.

On to `Oc1nc(-c2ccccn2)nc2c3c(sc12)CNC3` [drawing 3796], for which the inhibition at 20 µM is 51 to 75% in test [1], 76 to 100% in test [2] and 76 to 100% in test [3].

As to `Nc1nc(-c2ccccn2)nc2c(-c3ccccc3Cl)csc12` [drawing 3707], the inhibition at 20 µM in test [1] was in the range of 1 to 25%; in test [2] it was 25 to 50%; in test [3], 25 to 50%.

On to `O=C(c1csc2c(O)nc(-c3ccccn3)nc12)N1CCOC(c2cccc(Cl)c2)C1` (stereo not drawn) [drawing 3659], for which the inhibition at 20 µM in test [1] lay within 1 to 25%; in test [2] it was 51 to 75%; in test [3] it was 1 to 25%.

`Oc1nc(-c2ccccn2)nc2c(-c3ccc(CN4CCOCC4)cc3)csc12` [drawing 3754]: the figures for the inhibition at 20 µM in test [1], in test [2] and in test [3] were 25 to 50%, 25 to 50% and 51 to 75%, respectively.

Turning to `Oc1nc(-c2ccccn2)nc2c(-c3ccc(OC4CCCCC4)cc3)csc12` [drawing 3759], the inhibition at 20 µM was 25 to 50% in test [1], 51 to 75% in test [2] and 51 to 75% in test [3].

For the compound `N#Cc1cccc(CCNC(=O)c2csc3nc(-c4ccccn4)nc(N4CCOCC4)c23)c1` [drawing 3676], the inhibition at 20 µM fell in the range of 1 to 25% in test [1], 51 to 75% in test [2] and 51 to 75% in test [3].

As for `COc1ccc(CCN(C)C(=O)c2csc3nc(-c4ccccn4)nc(N4CCOCC4)c23)cn1` [drawing 3635], the values for the inhibition at 20 µM in test [1], in test [2] and in test [3] were 0%, 25 to 50% and 25 to 50%, respectively.

In the case of `Cc1cncc(-c2csc3c(O)nc(-c4ccccn4)nc23)c1` [drawing 3785], the figures for the inhibition at 20 µM in test [1], in test [2] and in test [3] were 25 to 50%, 25 to 50% and 51 to 75%, respectively.

For `COC(=O)c1c(C)sc2c(O)nc(-c3ccccn3)nc12` [drawing 3792], the inhibition at 20 µM lay within 51 to 75% in test [1], 76 to 100% in test [2] and 76 to 100% in test [3].

`COc1cnc(C2(N)CCCC2)nc1O` [drawing 3809]: the inhibition at 20 µM in test [1], in test [2] and in test [3] was 1 to 25% in each case.

`COc1nc(-c2ccccn2)nc2c(C3CC3)csc12` [drawing 3808]: the inhibition at 20 µM in test [1] was 1 to 25%; in test [2], 0%; in test [3], 0%.

For the compound `Cc1c(-c2csc3c(O)nc(-c4ccccn4)nc23)cnn1C` [drawing 3824], the inhibition at 20 µM in test [1] fell in the range of 51 to 75%; in test [2] it was 76 to 100%; in test [3], 76 to 100%.

`O=C(c1csc2c(O)nc(-c3ccccn3)nc12)N1CCN(c2cccc(F)c2)CC1` [drawing 3642]: the inhibition at 20 µM in test [1] lay in the range of 25 to 50%; in test [2] it was 76 to 100%; in test [3], 76 to 100%.

With `CC(c1ccccc1)N1CCN(C(=O)c2csc3c(O)nc(-c4ccccn4)nc23)CC1` (stereo not drawn) [drawing 3693], the inhibition at 20 µM fell in the range of 51 to 75% in test [1], 76 to 100% in test [2] and 76 to 100% in test [3].

On to `O=C(c1csc2c(O)nc(-c3ccccn3)nc12)N1CCN(c2ccc(F)cc2)CC1` [drawing 3643], for which the inhibition at 20 µM is 0% in test [1], 51 to 75% in test [2] and 51 to 75% in test [3].

Turning to `Cc1sc2c(O)nc(-c3ccccn3)nc2c1C(=O)N1CCN(c2ccccc2)CC1` [drawing 3827], the inhibition at 20 µM fell in the range of 25 to 50% in test [1], 76 to 100% in test [2] and 76 to 100% in test [3].

For the compound `COc1cnc(CNC(=O)c2csc3c(O)nc(-c4ccccn4)nc23)[nH]c1=O` [drawing 3838], the inhibition at 20 µM in test [1], in test [2] and in test [3] was 1 to 25% in each case.

Take `N#Cc1ccc2c(c1)CCCC2C(=O)Nc1ccnc(-c2ccccn2)n1` (stereo not drawn) [drawing 3727]: the inhibition at 20 µM in test [1], in test [2] and in test [3] was 51 to 75% in each case.

Take `Oc1nc(-c2ccccn2)nc2cc(-c3ccc(-c4ccccc4)cc3)sc12` [drawing 3877]: the inhibition at 20 µM in test [1] is 1 to 25%; in test [2], 1 to 25%; in test [3], 0%.

For the compound `O=C(c1csc2c(O)nc(-c3ccccn3)nc12)N1CCNC(c2ccccc2F)C1` (stereo not drawn) [drawing 3665], the inhibition at 20 µM fell in the range of 25 to 50% in test [1], 76 to 100% in test [2] and 76 to 100% in test [3].

As for `COCCCCNC(=O)c1csc2nc(-c3ccccn3)nc(N(CCOC)CCOC)c12` [drawing 3682], the inhibition at 20 µM is 0% in test [1], 51 to 75% in test [2] and 76 to 100% in test [3].

Turning to `Cc1ccc(-c2csc3c(O)nc(-c4ccccn4)nc23)cc1` [drawing 3878], the values for the inhibition at 20 µM in test [1], in test [2] and in test [3] were 1 to 25%, 25 to 50% and 0%, respectively.

Turning to `COc1cc(OC)cc(N2CCN(C(=O)c3csc4c(O)nc(-c5ccccn5)nc34)CC2)c1` [drawing 3646], the inhibition at 20 µM in test [1] was 0%; in test [2], 25 to 50%; in test [3], 25 to 50%.

`COc1nc(-c2ccccn2)nc(Oc2cccc(C(F)(F)F)c2)c1OC` [drawing 3870]: the inhibition at 20 µM in test [1] is 1 to 25%; in test [2], 0%; in test [3] it was 1 to 25%.

Turning to `Oc1nc(-c2ccccn2)nc2c(-c3ccc(Cl)c(Cl)c3)csc12` [drawing 3781], the results for the inhibition at 20 µM in test [1], in test [2] and in test [3] were 25 to 50%, 51 to 75% and 25 to 50%, respectively.

In the case of `CCn1nc(C)cc1-c1csc2c(O)nc(-c3ccccn3)nc12` [drawing 3775], the results for the inhibition at 20 µM in test [1], in test [2] and in test [3] were 51 to 75%, 76 to 100% and 51 to 75%, respectively.

Turning to `N#Cc1cccc(-c2csc3c(O)nc(-c4ccccn4)nc23)c1` [drawing 3822], the inhibition at 20 µM in test [1], in test [2] and in test [3] was 1 to 25% throughout.

Take `Nc1nc(-c2ccccn2)nc2scc(Br)c12` [drawing 3766]: the figures for the inhibition at 20 µM in test [1], in test [2] and in test [3] were 25 to 50%, 51 to 75% and 51 to 75%, respectively.

As to `Cn1cnc(-c2nc(O)c3c(-c4ccccc4)c(-c4ccncc4)sc3n2)c1` [drawing 3846], the inhibition at 20 µM in test [1] was 1 to 25%; in test [2], 0%; in test [3], 0%.

Consider `O=C(NCCc1ccnc(O)n1)c1csc2nc(-c3ccccn3)nc(N3CCOCC3)c12` [drawing 3770], for which the values for the inhibition at 20 µM in test [1], in test [2] and in test [3] were 1 to 25%, 51 to 75% and 51 to 75%, respectively.

For `COc1ccc(N2CCN(C(=O)c3csc4c(O)nc(-c5ccccn5)nc34)CC2)c(OC)c1` [drawing 3648], the figures for the inhibition at 20 µM in test [1], in test [2] and in test [3] were 25 to 50%, 51 to 75% and 76 to 100%, respectively.

Regarding `Cn1cc(C2CN(C(=O)c3csc4c(O)nc(-c5ccccn5)nc34)CCN2)cn1` (stereo not drawn) [drawing 3666], the inhibition at 20 µM in test [1] was in the range of 1 to 25%; in test [2] it was 76 to 100%; in test [3], 76 to 100%.

For the compound `Cc1sc2c(O)nc(-c3ccccn3)nc2c1C(=O)O` [drawing 3801], the inhibition at 20 µM was in the range of 25 to 50% in test [1], 25 to 50% in test [2] and 1 to 25% in test [3].

For the compound `COCCCCNC(=O)c1csc2nc(-c3ccccn3)nc(N3CCS(=O)(=O)CC3)c12` [drawing 3698], the inhibition at 20 µM in test [1], in test [2] and in test [3] was 1 to 25% in each case.

Consider `COc1nc(-c2ccccn2)nc2c(C3CCC3)csc12` [drawing 3799], for which the inhibition at 20 µM lay in the range of 51 to 75% in test [1], 76 to 100% in test [2] and 76 to 100% in test [3].
